# “And” between values parts separate entries of the source, which are not always exact repeats. Equal entries are not always repeated.
# System: GIP-C cells
# Test: Attachment factors study with subcultured GIP-C cells (cell counts in supernatant and of attached cells)
# Type: cell-based
# Conditions: for Cell counts in Supernatant, 2-5 μm / Cell counts in Supernatant, 5-8 μm / Cell counts of Attached cells, 2-5 μm / Cell counts of Attached cells, 5-8 μm: wells coated with attachment factor, RPMI 1640 media with supplements, two wells each; for Attaching of cells from 2-5 μm (comparison of attachment factors): cells 2-5 μm
# Method: Two of the six well plates were coated with the following attachment factors: Collagen type IV, Fibronectin, Superfibronectin, ECM gel and Laminin. Collagen type IV (2 mg/ml) was made by dissolving 0.75 mg of collagen in 375 μl of sterilized 0.25% acetic acid. Collagen type IV (187.5 μl) was used to coat two wells and Incubated overnight at 2-8° C. Fibronectin (250 μl of 10 μg/ml) was used to coat each well and air-dried at room temperature for 45 minutes. Superfibronectin (250 μl of 5 μg/ml) was used to coat each well and incubated at 37° C. for two hours. The wells were then washed twice with 100 μl of PBS, and left to air dry in a laminar flow hood. ECM gel was thawed overnight before use; 250 μl of ECM gel was mixed with 250 μl of cold DMEM medium before using 250 μl of the mixture to coat precooled wells. The ECM gel was then left for five minutes at 20° C. for the gel to polymerize. An aliquot of 200 μg/200 μl of laminin was thawed at 4° C. for 2-4 hrs before making a dilution using 36 μl of stock solution and diluting it with 464 μl of sterile PBS. Laminin (250 μl, 18 μg/well) was used to coat each well. The plates with laminin were then air-dried for 45 minutes. All of the plates containing the attachment factors were sterilized overnight by exposure to UV light in a sterile tissue culture hood.
# RPMI 1640 media (250 ml) was obtained from Invitrogen (11875-085), to which the following supplements were added: 100 ng/ml of cholera-toxin (Sigma, C8052), 500 ng/ml of hydrocortisone (Sigma, H0888), 5% of heat inactivated horse serum (Gibco, 16050-130) and 25 ml of Mesenchymal supplement (Stemcell technologies, 05402). After the media was filter sterilized and aliquots of 26 ml were made, they were stored at 4° C.
# RPMI 1640 media with all the supplements was warmed at 37° C. Two ml of the media was added to each well containing the attachment factors along with 3 control wells which contained no attachment factors. Cells previously subcultured in mesencult medium were pelleted and divided into 100,000 cells per well and incubated at 37° C. The cells were observed under a phase-contrast microscope. Once, every two days the top layer containing the unattached GIP-C cells was removed, washed and resuspended in freezing media. Two ml of RPMI 1640 media with the supplements was added to the wells and incubated at 37° C.
# The gastrointestinal progenitor cells in culture were found mostly in suspension in the culture media. In order to test the adherence of these cells a study was conducted where they were plated on tissue culture wells coated with each of the five different epithelial cell attachment factors: collagen type IV, laminin, superfibronectin, fibronectin, and ECM gel. There were three control wells with no attachment factors in them.
Substance,"Cell counts in Supernatant, 2-5 μm","Cell counts in Supernatant, 5-8 μm","Cell counts of Attached cells, 2-5 μm","Cell counts of Attached cells, 5-8 μm",Attaching of cells from 2-5 μm (comparison of attachment factors)
Laminin,4.09E+07 Cells/ml and 3.04E+07 Cells/ml,90048 Cells/ml and 84822 Cells/ml,974448 Cells/ml and 643602 Cells/ml,40602 Cells/ml and 43416 Cells/ml,–
Superfibronectin,3.96E+07 Cells/ml and 5.06E+07 Cells/ml,67536 Cells/ml and 54672 Cells/ml,1.62E+06 Cells/ml and 1.35E+06 Cells/ml,–,seemed to be better at attaching cells
Collagen type IV,1.22E+07 Cells/ml and 1.60E+07 Cells/ml,–,2.25E+06 Cells/ml and 1.19E+06 Cells/ml,57486 Cells/ml,seemed to be better at attaching cells
Fibronectin,–,68340 Cells/ml and 63918 Cells/ml,68340 Cells/ml,–,–

# Reference: US20080166807A1, “Autologous progenitor stem cells of gastrointestinal origin” (priority 2005, published 2008)
